Measurements reported in the supplement of paper PMC11061612.

How the values were obtained:
Assay in all cases: combination Emax (second highest fraction inhibited in the dose matrix, 72 h); higher = more inhibition; extreme values may be limits of the assay
CHP-212 (Neuroblastoma) = system: CHP-212 (Neuroblastoma)
How it was run: (§1)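 Cell lines in DMEM/F12 or RPMI with 10% FBS were plated in 1536-well plates, held 24 hours at 37°C, 5% CO2, then given two-drug dose matrices for 72 hours (DMSO typically 0.2%). Viability was read by CellTiter-Glo 2.0 luminescence and scaled as inhibition from 0 (vehicle wells) to 1 (blank wells). Combination Emax is the second-highest inhibition in the matrix; Bliss excess is observed combination effect minus expected EA + EB − EA·EB, EA and EB being single-agent effects.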

[1] = system: KM12 (Colorectal Carcinoma)
How it was run: as §1

[2] = system: L-540 (Hodgkin's Lymphoma)
How it was run: as §1

[3] = system: HDQ-P1 (Breast Carcinoma)
How it was run: as §1

[4] = system: SR (Other Blood Carcinomas)
How it was run: as §1

MEL-JUSO (Melanoma) = system: MEL-JUSO (Melanoma)
How it was run: as §1

NCI-H2818 (Mesothelioma) = system: NCI-H2818 (Mesothelioma)
How it was run: as §1

[5] = system: MS751 (Cervical Carcinoma)
How it was run: as §1

[6] = system: KARPAS-45 (T-Lymphoblastic Leukemia)
How it was run: as §1

[7] = system: GR-ST (B-Lymphoblastic Leukemia)
How it was run: as §1

[8] = system: PANC-08-13 (Pancreatic Carcinoma)
How it was run: as §1

[9] = system: SW1417 (Colorectal Carcinoma)
How it was run: as §1

[10] = system: KCL-22 (Chronic Myelogenous Leukemia)
How it was run: as §1

[11] = system: BL-41 (Burkitt's Lymphoma)
How it was run: as §1

[12] = system: SU-DHL-8 (B-Cell Non-Hodgkin's Lymphoma)
How it was run: as §1

LN-18 (Glioblastoma) = system: LN-18 (Glioblastoma)
How it was run: as §1

ES8 (Ewing's Sarcoma) = system: ES8 (Ewing's Sarcoma)
How it was run: as §1

[13] = system: KYSE-180 (Esophageal Squamous Cell Carcinoma)
How it was run: as §1

[14] = system: BFTC-905 (Bladder Carcinoma)
How it was run: as §1

[15] = system: HL-60 (Acute Myeloid Leukemia)
How it was run: as §1

| Compound | combination Emax (CHP-212 (Neuroblastoma)) | combination Emax [1] | combination Emax [2] | combination Emax [3] | combination Emax [4] | combination Emax (MEL-JUSO (Melanoma)) | combination Emax (NCI-H2818 (Mesothelioma)) | combination Emax [5] | combination Emax [6] | combination Emax [7] | combination Emax [8] | combination Emax [9] | combination Emax [10] | combination Emax [11] | combination Emax [12] | combination Emax (LN-18 (Glioblastoma)) | combination Emax (ES8 (Ewing's Sarcoma)) | combination Emax [13] | combination Emax [14] | combination Emax [15] |
| --- | --- | --- | --- | --- | --- | --- | --- | --- | --- | --- | --- | --- | --- | --- | --- | --- | --- | --- | --- | --- |
| CC1(C)CCC(CN2CCN(c3ccc(C(=O)NS(=O)(=O)c4ccc(NCC5CCOCC5)c([N+](=O)[O-])c4)c(Oc4cnc5[nH]ccc5c4)c3)CC2)=C(c2ccc(Cl)cc2)C1 [Venetoclax] + Cn1cnc2c(F)c(Nc3ccc(Br)cc3Cl)c(C(=O)NOCCO)cc21 [Selumetinib] (first compound max 1 µM, 7x7, partner max 3 µM) | 0.878 | 0.555 | 0.493 | 0.182 | 0.791 | 0.305 | 0.133 | 0.191 | 0.317 | 0.481 | 0.184 | 0.489 | 0.318 | 0.196 | 0.31 | 0.17 | 0.195 | 0.0548 | 0.454 | 0.937 |
| NC1(C(=O)N[C@@H](CCO)c2ccc(Cl)cc2)CCN(c2ncnc3[nH]ccc23)CC1 [Capivasertib] + CCN(CCO)CCCOc1ccc2c(Nc3cc(CC(=O)Nc4cccc(F)c4)[nH]n3)ncnc2c1 [AZD2811] (first compound max 10 µM, 7x7, partner max 1 µM) | 0.749 | 0.77 | 0.361 | 0.321 | 0.957 | 0.274 | 0.294 | 0.632 | 0.979 | 0.702 | 0.329 | 0.278 | 0.472 | 0.706 | 0.324 | 0.597 | 1 | 0.51 | 0.428 | 0.859 |
| Cc1c2c(nn1C)CSCc1cc(n(C)n1)CSc1cc(c3ccccc3c1)OCCCc1c(C(=O)O)n(C)c3c-2c(Cl)ccc13 [AZD5991] + CC1(C)CCC(CN2CCN(c3ccc(C(=O)NS(=O)(=O)c4ccc(NCC5CCOCC5)c([N+](=O)[O-])c4)c(Oc4cnc5[nH]ccc5c4)c3)CC2)=C(c2ccc(Cl)cc2)C1 [Venetoclax] (first compound max 1 µM, 7x7, partner max 1 µM) | 0.835 | 0.173 | 1 | 0.216 | 0.964 | 0.339 | 0.387 | 0.812 | 1 | 0.124 | 0.116 | 0.191 | 0.928 | 1 | 0.861 | 0.374 | 0.864 | 0.922 | 0.604 | 1 |
| COc1cc2ncnc(Nc3ccc(F)c(Cl)c3)c2cc1OCCCN1CCOCC1 [Gefitinib] + CC(C)n1c(=O)n(C)c2cnc3cc(F)c(-c4ccc(OCCCN5CCCCC5)nc4)cc3c21 [AZD1390] (first compound max 10 µM, 7x7, partner max 0.3 µM) | 0.157 | 0.044 | 0.451 | 0.383 | 0.2 | 0.114 | 0.146 | 0.133 | 0.644 | 0.39 | 0.143 | 0.164 | 0.155 | 0.279 | 0.142 | 0.146 | 0.178 | 0.246 | 0.212 | 0.0178 |
| CN(CCO)CC[C@H](CSc1ccccc1)Nc1ccc(S(=O)(=O)NC(=O)c2ccc(N3CCC([C@@H](O)c4ccccc4-c4ccc(Cl)cc4)CC3)cc2)cc1S(=O)(=O)C(F)(F)F [AZD4320] + Cc1cc2ncnn2cc1Nc1ncc2c(n1)n(C1CCOCC1)c(=O)n2C [AZD7648] (first compound max 1 µM, 7x7, partner max 10 µM) | 0.379 | 0.226 | 0.502 | 0.522 | 0.393 | 0.181 | 0.364 | 0.146 | 0.991 | 0.371 | 0.391 | 0.798 | 0.462 | 0.203 | 0.942 | 0.204 | 0.57 | 0.0754 | 0.117 | 0.923 |
| NC1(C(=O)N[C@@H](CCO)c2ccc(Cl)cc2)CCN(c2ncnc3[nH]ccc23)CC1 [Capivasertib] + CC(C)n1c(=O)n(C)c2cnc3cc(F)c(-c4ccc(OCCCN5CCCCC5)nc4)cc3c21 [AZD1390] (first compound max 10 µM, 7x7, partner max 0.3 µM) | 0.262 | 0.755 | 0.265 | 0.215 | 0.361 | 0.164 | 0.224 | 0.19 | 0.581 | 0.611 | 0.242 | 0.276 | 0.266 | 0.297 | 0.107 | 0.432 | 0.545 | 0.488 | 0.221 | 0.225 |
| COc1nnc2ccc(N3CCC(c4ccc(OCCN5CCN(C)C(=O)[C@H]5C)cc4)CC3)nn12 [AZD5153] + C=CCn1c(=O)c2cnc(Nc3ccc(N4CCN(C)CC4)cc3)nc2n1-c1cccc(C(C)(C)O)n1 [AZD1775] (first compound max 1 µM, partner max 1 µM) | 0.958 | 0.853 | 0.925 | 0.523 | 0.96 | 0.491 | 0.327 | 0.935 | 1 | 0.832 | 0.679 | 0.601 | 0.927 | 1 | 0.994 | 0.649 | 0.779 | 0.742 | 0.63 | 0.932 |
| NC1(C(=O)N[C@@H](CCO)c2ccc(Cl)cc2)CCN(c2ncnc3[nH]ccc23)CC1 [Capivasertib] + Cn1cnc2c(F)c(Nc3ccc(Br)cc3Cl)c(C(=O)NOCCO)cc21 [Selumetinib] (first compound max 10 µM, 7x7, partner max 10 µM) | 0.946 | 0.868 | 0.188 | 0.596 | 0.582 | 0.545 | 0.318 | 0.263 | 0.627 | 0.678 | 0.405 | 0.586 | 0.604 | 0.287 | 0.0919 | 0.603 | 0.533 | 0.48 | 0.746 | 0.874 |
| Cc1cc2ncnn2cc1Nc1ncc2c(n1)n(C1CCOCC1)c(=O)n2C [AZD7648] + C=CCn1c(=O)c2cnc(Nc3ccc(N4CCN(C)CC4)cc3)nc2n1-c1cccc(C(C)(C)O)n1 [AZD1775] (first compound max 10 µM, partner max 1 µM) | 0.769 | 0.764 | 0.945 | 0.567 | 0.986 | 0.494 | 0.462 | 0.387 | 0.819 | 0.772 | 0.312 | 0.555 | 0.937 | 1 | 0.87 | 0.366 | 0.691 | 0.778 | 0.56 | 0.812 |
| Cc1cc2ncnn2cc1Nc1ncc2c(n1)n(C1CCOCC1)c(=O)n2C [AZD7648] + C[C@@H]1COCCN1C2=NC(=NC(=C2)C3(CC3)[S@](=N)(=O)C)C4=C5C=CNC5=NC=C4 [AZD6738] (first compound max 10 µM, 7x7, partner max 10 µM) | 0.776 | 0.636 | 0.951 | 0.468 | 0.924 | 0.419 | 0.43 | 0.296 | 0.74 | 0.743 | 0.325 | 0.491 | 0.983 | 1 | 0.899 | 0.272 | 0.798 | 0.867 | 0.804 | 0.834 |
| Cn1cnc2c(F)c(Nc3ccc(Br)cc3Cl)c(C(=O)NOCCO)cc21 [Selumetinib] + CC(C)n1c(=O)n(C)c2cnc3cc(F)c(-c4ccc(OCCCN5CCCCC5)nc4)cc3c21 [AZD1390] (first compound max 10 µM, 7x7, partner max 0.3 µM) | 0.923 | 0.657 | 0.0301 | 0.248 | 0.129 | 0.349 | 0.138 | 0.144 | 0.0319 | 0.225 | 0.111 | 0.437 | 0.478 | 0.209 | 0.0761 | 0.157 | 0.263 | 0.0295 | 0.606 | 0.743 |
| Cc1c2c(nn1C)CSCc1cc(n(C)n1)CSc1cc(c3ccccc3c1)OCCCc1c(C(=O)O)n(C)c3c-2c(Cl)ccc13 [AZD5991] + Cn1cnc2c(F)c(Nc3ccc(Br)cc3Cl)c(C(=O)NOCCO)cc21 [Selumetinib] (first compound max 1 µM, 7x7, partner max 3 µM) | 0.944 | 0.638 | 1 | 0.211 | 0.952 | 0.669 | 0.293 | 0.896 | 0.922 | 0.0688 | 0.208 | 0.527 | 0.959 | 1 | 0.655 | 0.315 | 0.521 | 0.848 | 0.751 | 1 |
| CC(=O)c1c(C)c2cnc(Nc3ccc(N4CCNCC4)cn3)nc2n(C2CCCC2)c1=O [Palbociclib] + Cc1c2c(nn1C)CSCc1cc(n(C)n1)CSc1cc(c3ccccc3c1)OCCCc1c(C(=O)O)n(C)c3c-2c(Cl)ccc13 [AZD5991] (first compound max 10 µM, 7x7, partner max 1 µM) | 0.882 | 0.752 | 0.981 | 0.263 | 0.993 | 0.305 | 0.367 | 0.833 | 0.99 | 0.719 | 0.221 | 0.229 | 0.673 | 0.998 | 0.683 | 0.477 | 0.65 | 0.638 | 0.474 | 0.994 |
